The target in assay [1] is T1, pyruvate dehydrogenase kinase 1 (PDK1) (Homo sapiens, UniProt Q15118).
T1 construct: His-tagged PDK1
Put plainly: isothermal titration calorimetry (MicroCal AutoITC200); supported by (α-32P)ATP displacement from purified PDK1. It counts as binding. A general note: In ITC the heat of successive injections is recorded.

For assay [2], the target named is T1, pyruvate dehydrogenase kinase 1 (PDK1). Put plainly: radiolabelled (α-32P)ATP binding to bead-bound purified PDK1, scintillation counting, unlabelled ATP as competitor.

pKd: −log10 of the molar value.

In general, pKd refers to the negative decadic logarithm of the Kd, by convention in mol/L. A low value points to a high Kd.

T1 sequence (Q15118 29-436): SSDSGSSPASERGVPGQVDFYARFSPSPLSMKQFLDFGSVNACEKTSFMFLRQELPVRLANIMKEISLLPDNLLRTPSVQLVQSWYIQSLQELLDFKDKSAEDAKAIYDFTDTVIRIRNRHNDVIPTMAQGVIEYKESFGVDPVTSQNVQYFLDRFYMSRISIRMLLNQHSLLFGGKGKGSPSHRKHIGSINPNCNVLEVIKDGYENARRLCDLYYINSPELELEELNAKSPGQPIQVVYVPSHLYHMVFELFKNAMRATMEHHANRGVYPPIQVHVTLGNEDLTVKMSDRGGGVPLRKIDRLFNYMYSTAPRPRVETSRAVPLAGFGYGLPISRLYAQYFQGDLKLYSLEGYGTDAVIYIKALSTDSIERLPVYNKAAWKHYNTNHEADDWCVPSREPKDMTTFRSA

In assay [1], `C=C1CCC[C@H]2[C@](C)(CC3=C(O)C(=O)C=C(OC)C3=O)[C@@H](C)CC[C@]12C` [IQ, ilimaquinone] showed a pKd of 4.83.
In the case of `Nc1ncnc2c1ncn2[C@@H]1O[C@H](COP(=O)(O)OP(=O)(O)OP(=O)(O)O)[C@@H](O)[C@H]1O` [ATP], the “radiolabelled (α-32P)ATP binding to bead-bound purified PDK1, scintillation coun” value in assay [2] is “The binding of ATP to PDK1 in the presence of IQ was determined using α^32-labeled ATP”.

Source of the values: publication PMC7504051, “Ilimaquinone Induces the Apoptotic Cell Death of Cancer Cells by Reducing Pyruvate Dehydrogenase Kinase 1 Activity” (International Journal of Molecular Sciences, 2020).
